Measured values as given in patent publication US9376662B2, “Increasing cell culture population doublings for long-term growth of finite life span human cell cultures” (The Regents of the University of California, priority 2006, dated 2016).
“Also recorded” adds a separate entry of the source.

Tests used:
Format in all cases: cell-based, human
pre-stasis HMEC [1] = experiment: Long-term growth of pre-stasis HMEC: total population doublings (PD) prior to stasis; conditions: for total PD with oxytocin added to M85: oxytocin added at primary culture or passage 2
Experimental: See FIG. 7, where the increased PD shown by HMEC from specimen 184, batch ⋄, is also seen in HMEC obtained from the 2 other donors tested, 48R, batch T, and 240L, batch B. Specimen 240L was grown only in M85 with oxytocin from primary organoids. Specimen 48R was grown in M85±oxytocin from primary organoids. For comparison, growth of specimen 184 in MM is shown. 184 HMEC batch ⋄ and 48RT+oxytocin were grown in 20% O2. The other cultures were grown in 3% O2.
HMEC placed in a medium containing ˜1% serum and conditioned media (MM) have active growth for ˜15-30 PD; cells grown in a serum-free medium (MCDB170) show active proliferation for ˜10-20 PD; HMEC grown in MM in a low oxygen environment (3% vs. 20%) grow for an additional ˜4 PD.
(§1) Short-term growth assays are done by measuring 24 hr labeling index (LI) at midconfluence and p16 expression and cell numbers at confluence in different media (as shown in FIG. 13). […] Other assays will transfer growing populations a few passages before stasis to media lacking specific components and assay LI and p16 (as shown in FIG. 12).

p16 protein = experiment: Immunohistochemical staining for p16 protein and labeling index (LI) in pre-stasis HMEC; conditions: 184 HMEC in M85, 48 days post-seeding, 20% O2
Text: Note the gradually increasing expression of p16 with passage and the gradual reduction in the growing population. Note also the reciprocity between positive labeling of the small cell population with BrdU and the positive staining of the larger cell population for p16 expression.
Referring now to FIGS. 3-5, which show pre-stasis growth of 184 HMEC in different media and immunohistochemical staining for p16 protein. 184 HMEC were started in M85 and subcultured at passage 2 into M85 with cholera toxin with or without oxytocin, in 20% O2. […] Note the large cells staining for p16 with the small cells still negative for p16 but positive for LI (indicative of DNA synthesis).
as §1

pre-stasis HMEC [2] = experiment: Growth of pre-stasis HMEC on different substrates; conditions: compared with plastic
Experimental: Referring to FIG. 18, 184 HMEC, batch f, were grown in MM in primary culture and switched to M85 at passage 2. At passage 4 they were switched to M87 and grown on plastic (♦), laminin on plastic (▪), or laminin on LUMOX dishes (▴) (which allow the cells to grow on a gas-permeable substrate).
Referring to FIG. 19, pre-stasis 48RT HMEC were grown from primary culture in M85+oxytocin and switched at passage 6 to growth on laminin on plastic or plastic alone.

## CC[C@H](C)[C@@H]1NC(=O)[C@H](Cc2ccc(O)cc2)NC(=O)[C@@H](N)CSSC[C@@H](C(=O)N2CCC[C@H]2C(=O)N[C@@H](CC(C)C)C(=O)NCC(N)=O)NC(=O)[C@H](CC(N)=O)NC(=O)[C@H](CCC(N)=O)NC1=O [oxytocin]
pre-stasis HMEC [1]; 0.1 nM compared with 1.0 nM oxytocin
  growth conditions at the lower oxytocin concentration: provided better growth conditions than 1.0 nM
pre-stasis HMEC [1]; 184 HMEC in M85 with or without oxytocin
  PD potential in the presence of oxytocin: greatly increased PD potential; also recorded: significant increase in total PD
pre-stasis HMEC [1]; M85 base medium, about 45 PD to about 60 PD
  increase in population doublings by oxytocin: 33%
pre-stasis HMEC [1]; M85 base medium
  total PD with oxytocin added to M85: around 60 PD
pre-stasis HMEC [1]; M85 base medium, listed as Oxytocin
  total PD with oxytocin added to M85: up to 60 PD
p16 protein
  p16 expression with oxytocin compared to without: lower level of p16 expression

## laminin
pre-stasis HMEC [2]
  proliferation as the cells approach stasis: more proliferation occurred
